Reference: PMC9180926, “Discovery of Novel 3-Hydroxyquinazoline-2,4(1H,3H)-Dione Derivatives: A Series of Metal Ion Chelators with Potent Anti-HCV Activities” (International Journal of Molecular Sciences, 2022)
Where two headings read alike, the source gives them in different places.

Experiments:
[1] = system: HCV 1b replicon cells (Huh-7.5.1); assay: Anti-HCV assay, HCV 1b replicon cells with luciferase reporter; type: cell-based, hepatitis C virus (HCV) subtype 1b; conditions: for EC50: mean ± SD; for inhibition at 10 µM / inhibition at 25 µM: Huh-7.5.1, 72 h; for inhibition at 10 µM: read-out: HCV Inhibition 10 μM; for inhibition at 25 µM: read-out: HCV Inhibition 25 μM; for HCV inhibition at the tested concentrations: at the tested concentrations (25 μM and 10 μM)
Protocol: (§1) The HCV replicons were validated as convenient and effective models for testing the anti-HCV activity. Since HCV subtype 1b is one of the major subtypes worldwide, especially in China, the replicon model from the Huh-7.5.1 cell line integrating HCV 1b genome encoding the nonstructural proteins was chosen to evaluate the anti-HCV activities of 3-hydroxyquinazoline-2,4(1H,3H)-diones. The inhibitory rates of the compounds on HCV replicon cells were determined at concentrations of 25 μM and 10 μM, respectively. The broad-spectrum antiviral drug ribavirin (RBV) and the NS5B nucleoside inhibitor 2′-C-methyladenosine (2CMA) were selected as positive controls. The cytotoxicity of these compounds on replicon cells was determined using the cell counting kit-8 (CCK-8) assay.
HCV 1b replicon cells (Huh-7.5.1) containing luciferase reporter gene were kindly provided by Prof. Zhenghong Yuan (Key Laboratory of Medical Molecular Virology, Fudan University, Shanghai, China). The replicon cells were plated at 1.5 × 10^4 cells per well in a 48-well plate (Corning Inc., New York, NY, USA) at 5% CO2/37 °C. The culture medium was Dulbecco’s Modified Eagle Medium (DMEM, pH 7.3, Shanghai XP Biomed Ltd., Shanghai, China) containing 10% fetal bovine serum (Shanghai XP Biomed Ltd., Shanghai, China), 10^5 U/L penicillin, 0.1 g/L streptomycin, and 0.5 μg/mL blasticidin. After 12 h, the culture medium in each well was replaced with 300 μL of pre-prepared fresh culture medium containing test compound (dissolved in DMSO with specific concentration) or blank DMSO. The final concentration of DMSO in the culture medium in the plate was 0.1%. Each group was tested at least twice in parallel. Ribavirin and 2CMA were used as the positive controls. After incubating the drug-added plate at 5% CO2/37 °C for 72 h, the medium was removed, and each well was washed with 300 μL of phosphate buffer solution (PBS, Shanghai XP Biomed Ltd., Shanghai, China). The cells in each well were then lysed with 50 μL of 1× lysis buffer (E2820, Promega, Madison, WI, USA). Subsequently, 50 μL of 1× luciferase assay substrate (E2820, Promega, Madison, WI, USA) was mixed with 20 μL of the harvested cell lysates.
The inhibitory rates under at least six different concentration gradients were imported into GraphPad Prism 7.0 software to calculate the anti-HCV EC50 values of the compounds using the nonlinear fitting method.

[2] = Cytotoxicity assay (CCK-8) on replicon cells; type: cell-based; conditions: human, HCV 1b replicon cells (Huh-7.5.1); 50% cytotoxic concentration; CCK-8, HCV 1b replicon cells, 72 h
Protocol: as §1
The HCV 1b replicon cells were incubated and treated with test compounds or blank DMSO in a 48-well plate using the same materials and methods as described in the experimental procedure of anti-HCV assay. The final concentration of DMSO in each well was 0.1%. After 72 h of drug treatment, the culture medium in the well plate was removed, and cells in each well were washed with 300 μL of PBS. A total of 300 μL of pre-prepared fresh culture medium containing 30 μL CCK-8 reagent (Donjindo, Kumamoto, Japan) was added to each well, and the plate was incubated at 5% CO2/37 °C for 2 h. The OD (optical density) value of each well at 450 nm was measured using a multi-function microplate reader (SpectraMax M5, Molecular Devices, San Jose, CA, USA). The death ratio of each well was calculated using the following equation, in which ODcompound or ODblank represents the measured OD value of the compound group or the blank control (DMSO), respectively:death ratio = (1−ODcompound/ODblank) × 100%(2)
The cell death data under at least six different concentration gradients were imported into GraphPad Prism 7.0.0 software (GraphPad Software Inc., San Diego, CA, USA), and the CC50 (50% cytotoxic concentration) values were calculated using the nonlinear fitting method.

[3] = Hepatitis C virus, Huh-7.5.1, 50% effective concentration, HCV 1b replicon cells
[4] = Hepatitis C virus, inhibitory rate at 10 μM, HCV 1b replicon cells, 72 h
[5] = Hepatitis C virus, inhibitory rate at 25 μM, HCV 1b replicon cells, 72 h
[6] = 50% effective concentration, HCV 1b replicon cells

## O=C(Cn1c(=O)n(O)c(=O)c2ccccc21)c1ccccc1 [10e, 3-Hydroxy-1-(2-oxo-2-phenylethyl)quinazoline-2,4(1H,3H)-dione]
[1]; [3]
  EC50: 11.3 ± 3 µM
[1]; [4]
  inhibition at 10 µM: 46.1%
[1]; [5]
  inhibition at 25 µM: 68%
[2]
  CC50 at 72 h: 13.1 ± 1.7 µM

## O=C(Cn1c(=O)n(O)c(=O)c2ccccc21)NCC1CC1 [10g, N-(Cyclopropylmethyl)-2-(3-hydroxy-2,4-dioxo-3,4-dihydroquinazolin-1(2H)-yl)acetamide]
[1]; [4]
  inhibition at 10 µM: 10.6%
[1]; [5]
  inhibition at 25 µM: 15%
[1]
  HCV inhibition at the tested concentrations: less than 30%

## O=C(Cn1c(=O)n(O)c(=O)c2ccccc21)NCc1cccc(F)c1 [10l, N-(3-Fluorobenzyl)-2-(3-hydroxy-2,4-dioxo-3,4-dihydroquinazolin-1(2H)-yl)acetamide]
[1]; [4]
  inhibition at 10 µM: 22.4%
[1]; [5]
  inhibition at 25 µM: 45.5%

## O=c1[nH]c2cc(-c3cc(F)cc(F)c3)ccc2c(=O)n1O [21m, 7-(3,5-Difluorophenyl)-3-hydroxyquinazoline-2,4(1H,3H)-dione]
[1]; [4]
  inhibition at 10 µM: 48.2%

## CCCn1c(=O)n(O)c(=O)c2ccc(-c3ccccc3)cc21 [23g, 3-Hydroxy-7-phenyl-1-propylquinazoline-2,4(1H,3H)-dione]
[1]; [4]
  inhibition at 10 µM: -2.2%
[1]; [5]
  inhibition at 25 µM: 67.4%

## O=c1[nH]c2cc(-c3cc(F)c(F)c(F)c3)ccc2c(=O)n1O [21q, 3-Hydroxy-7-(3,4,5-trifluorophenyl)quinazoline-2,4(1H,3H)-dione]
[1]; [4]
  inhibition at 10 µM: 26.8%
[1]; [5]
  inhibition at 25 µM: 5.4%

## COc1ccc(-c2ccc3c(=O)n(O)c(=O)n(C)c3c2)cc1 [23d, 3-Hydroxy-7-(4-methoxyphenyl)-1-methylquinazoline-2,4(1H,3H)-dione]
[1]; [3]
  EC50: 3.3 ± 0.2 µM
[1]; [4]
  inhibition at 10 µM: 73.3%
[2]
  CC50 at 72 h: 9.3 ± 0.4 µM

## O=C(Cn1c(=O)n(O)c(=O)c2ccccc21)NCc1c(Cl)cccc1Cl [10k, N-(2,6-Dichlorobenzyl)-2-(3-hydroxy-2,4-dioxo-3,4-dihydroquinazolin-1(2H)-yl)acetamide]
[1]; [4]
  inhibition at 10 µM: 43.7%
[1]; [5]
  inhibition at 25 µM: 54.7%

## CCCn1c(=O)n(O)c(=O)c2cc(-c3ccccc3)ccc21 [23f, 3-Hydroxy-6-phenyl-1-propylquinazoline-2,4(1H,3H)-dione]
[1]; [4]
  inhibition at 10 µM: 26.7%
[1]; [5]
  inhibition at 25 µM: 28%

## COc1ccc(-c2ccc3c(=O)n(O)c(=O)[nH]c3c2)cc1 [21i, 3-Hydroxy-7-(4-methoxyphenyl)quinazoline-2,4(1H,3H)-dione]
[1]; [3]
  EC50: 3.4 ± 0.1 µM
[1]; [4]
  inhibition at 10 µM: 64.7%
[2]
  CC50 at 72 h: 5.6 ± 0.5 µM

## O=c1[nH]c2cc(-c3ccc(F)cc3F)ccc2c(=O)n1O [21n, 7-(2,4-Difluorophenyl)-3-hydroxyquinazoline-2,4(1H,3H)-dione]
[1]; [3]
  EC50: 3.9 ± 0.3 µM
[1]; [4]
  inhibition at 10 µM: 69.7%
[2]
  CC50 at 72 h: 11.2 ± 1.4 µM

## Cn1c(=O)n(O)c(=O)c2ccc(Cc3cc(F)cc(F)c3)cc21 [18c, 7-(3,5-Difluorobenzyl)-3-hydroxy-1-methylquinazoline-2,4(1H,3H)-dione]
[1]; [4]
  inhibition at 10 µM: 39.5%

## O=c1[nH]c2ccccc2c(=O)n1O [10a, 3-Hydroxyquinazoline-2,4(1H,3H)-dione]
[1]; Hepatitis C virus
  inhibition at 10 µM: -3%
  inhibition at 25 µM: 36%

## Cn1c(=O)n(O)c(=O)c2ccc(Cc3ccccc3)cc21 [18b, 7-Benzyl-3-hydroxy-1-methylquinazoline-2,4(1H,3H)-dione]
[1]; [4]
  inhibition at 10 µM: 23%

## N#Cc1ccc(NC(=O)Cn2c(=O)n(O)c(=O)c3ccccc32)cc1 [10n, N-(4-Cyanophenyl)-2-(3-hydroxy-2,4-dioxo-3,4-dihydroquinazolin-1(2H)-yl)acetamide]
[1]; [6]
  EC50: 6.4 ± 0.3 µM
[1]; [3]
  EC50: < 10 µM
[1]; [4]
  inhibition at 10 µM: 58%
[1]; [5]
  inhibition at 25 µM: 66%
[2]
  CC50 at 72 h: 10.6 ± 0.3 µM

## O=c1c2ccccc2n(CCCc2ccccc2)c(=O)n1O [10b, 3-Hydroxy-1-(3-phenylpropyl)quinazoline-2,4(1H,3H)-dione]
[1]; [4]
  inhibition at 10 µM: 28.6%
[1]; [5]
  inhibition at 25 µM: 40.9%

## O=C(Cn1c(=O)n(O)c(=O)c2ccccc21)Nc1ccc(C(F)(F)F)cc1 [10p, 2-(3-Hydroxy-2,4-dioxo-3,4-dihydroquinazolin-1(2H)-yl)-N-(4-(trifluoromethyl)phenyl)acetamide]
[1]; [6]
  EC50: 8.1 ± 0.1 µM
[1]; [3]
  EC50: < 10 µM
[1]; [4]
  inhibition at 10 µM: 41.4%
[1]; [5]
  inhibition at 25 µM: 64.9%
[2]
  CC50 at 72 h: 15.3 ± 0.7 µM

## O=c1[nH]c2c(-c3ccc(C(F)(F)F)cc3)cccc2c(=O)n1O [21x, 3-Hydroxy-8-(4-(trifluoromethyl)phenyl)quinazoline-2,4(1H,3H)-dione]
[1]; [4]
  inhibition at 10 µM: 16.4%
[1]; [5]
  inhibition at 25 µM: 47.5%

## O=C(Cn1c(=O)n(O)c(=O)c2ccccc21)NCc1ccc(F)cc1 [10m, N-(4-Fluorobenzyl)-2-(3-hydroxy-2,4-dioxo-3,4-dihydroquinazolin-1(2H)-yl)acetamide]
[1]; [4]
  inhibition at 10 µM: 12.7%
[1]; [5]
  inhibition at 25 µM: 58.4%

## O=C(Cn1c(=O)n(O)c(=O)c2ccccc21)Nc1ccccc1 [10j, 2-(3-Hydroxy-2,4-dioxo-3,4-dihydroquinazolin-1(2H)-yl)-N-phenylacetamide]
[1]; [4]
  inhibition at 10 µM: 30.1%
[1]; [5]
  inhibition at 25 µM: 62.7%

## O=c1[nH]c2cc(Cc3ccccc3)ccc2c(=O)n1O [18a, 7-Benzyl-3-hydroxyquinazoline-2,4(1H,3H)-dione]
[1]; [4]
  inhibition at 10 µM: 28.6%
[1]; [5]
  inhibition at 25 µM: 59.8%

## O=C(Cn1c(=O)n(O)c(=O)c2ccccc21)NCc1ccccc1 [10h, N-Benzyl-2-(3-hydroxy-2,4-dioxo-3,4-dihydroquinazolin-1(2H)-yl)acetamide]
[1]; [4]
  inhibition at 10 µM: 1.3%
[1]; [5]
  inhibition at 25 µM: ≤ 50%

## O=c1c2cc(-c3ccccc3)ccc2n(Cc2ccccc2)c(=O)n1O [23h, 1-Benzyl-3-hydroxy-6-phenylquinazoline-2,4(1H,3H)-dione]
[1]; [4]
  inhibition at 10 µM: 7.8%
[1]; [5]
  inhibition at 25 µM: 2%

## O=c1[nH]c2c(-c3ccc(F)cc3)cccc2c(=O)n1O [21v, 8-(4-Fluorophenyl)-3-hydroxyquinazoline-2,4(1H,3H)-dione]
[1]; [4]
  inhibition at 10 µM: 23.5%
[1]; [5]
  inhibition at 25 µM: 44.5%

## O=c1c2ccc(-c3ccccc3)cc2n(Cc2ccccc2)c(=O)n1O [23i, 1-Benzyl-3-hydroxy-7-phenylquinazoline-2,4(1H,3H)-dione]
[1]; [4]
  inhibition at 10 µM: -6.5%
[1]; [5]
  inhibition at 25 µM: 4.8%

## COc1ccc(-c2cccc3c(=O)n(O)c(=O)[nH]c23)cc1 [21w, 3-Hydroxy-8-(4-methoxyphenyl)quinazoline-2,4(1H,3H)-dione]
[1]; [4]
  inhibition at 10 µM: 11.5%
[1]; [5]
  inhibition at 25 µM: 36.4%

## O=C(Cn1c(=O)n(O)c(=O)c2ccccc21)NCCc1ccccc1 [10f, 2-(3-Hydroxy-2,4-dioxo-3,4-dihydroquinazolin-1(2H)-yl)-N-phenethylacetamide]
[1]; [4]
  inhibition at 10 µM: 13.3%
[1]; [5]
  inhibition at 25 µM: ≤ 50%

## CCCCNC(=O)Cn1c(=O)n(O)c(=O)c2ccccc21 [10i, N-Butyl-2-(3-hydroxy-2,4-dioxo-3,4-dihydroquinazolin-1(2H)-yl)acetamide]
[1]; [4]
  inhibition at 10 µM: 26.5%
[1]; [5]
  inhibition at 25 µM: 22.9%
[1]
  HCV inhibition at the tested concentrations: less than 30%

## COc1ccc(NC(=O)Cn2c(=O)n(O)c(=O)c3ccccc32)cc1 [10o, 2-(3-Hydroxy-2,4-dioxo-3,4-dihydroquinazolin-1(2H)-yl)-N-(4-methoxyphenyl)acetamide]
[1]; [4]
  inhibition at 10 µM: 16.9%
[1]; [5]
  inhibition at 25 µM: 67.5%
